Earlier results on 1 substance are cited in US5162307A, “Polymer bound elastase inhibitors” (Board of Trustees of the University of Kentucky, priority 1992, dated 1992).

For series [1] the following is noted: in vivo.
In a further series the test system is rabbits. As to conditions: rabbit, in vivo.
A further series relates to guinea pigs. Conditions: guinea pig, in vivo.

Take “poly α, β-[N-(2-hydroxyethyl)-D,L-aspartamide] [PHEA]”: in series [1], the “effect on the biosynthetic mechanism of the serum proteins or of blood cells” value is “no adverse effect” and the toxicity result was “lack toxicity”. Besides, in series [1] (iv), the organ weight result was “do not induce any significant changes” and the total weight gain entry was “do not induce any significant changes”. Further, in the series with rabbits, the “immune response (antigenicity)” value was “no evidence of an immune response”. The “immune response (antigenicity)” value in the series with guinea pigs is recorded as “no evidence of an immune response”.
